Measurements from PubChem BioAssay (NCI).
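A five-concentration, 48-hour dose response in 96-well plates underlies each endpoint, interpolated linearly between surrounding concentrations. At the TGI there is no net growth.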

How the values were obtained:
Assay in all cases: NCI-60 cell line screen, 48 h
ACHN renal = tested on: ACHN renal
BT-549 breast = tested on: BT-549 breast
CAKI-1 renal = tested on: CAKI-1 renal
KM12 colon = tested on: KM12 colon
MCF7 breast = tested on: MCF7 breast
NCI-H522 lung = tested on: NCI-H522 lung
OVCAR-4 ovarian = tested on: OVCAR-4 ovarian
OVCAR-8 ovarian = tested on: OVCAR-8 ovarian
SF-539 CNS = tested on: SF-539 CNS
UACC-257 melanoma = tested on: UACC-257 melanoma

Row | Structure (SMILES) | TGI (ACHN renal) | TGI (BT-549 breast) | TGI (CAKI-1 renal) | TGI (KM12 colon) | TGI (MCF7 breast) | TGI (NCI-H522 lung) | TGI (OVCAR-4 ovarian) | TGI (OVCAR-8 ovarian) | TGI (SF-539 CNS) | TGI (UACC-257 melanoma)
1 | Cn1nc2c(c1N)Cc1c(nn(C)c1N)-c1ccccc1-2 | > 100 µM | > 100 µM | > 100 µM | > 100 µM | > 100 µM | > 100 µM | > 100 µM | > 100 µM | > 100 µM | > 100 µM
2 | Cc1cc(OCc2nnc3sc(NC(=O)c4ccccc4)nn23)ccc1Cl | 42.9 µM | > 100 µM | 36 µM | 52.6 µM | > 100 µM | 61 µM | > 100 µM | 47.1 µM | > 100 µM | > 100 µM
3 | COc1cc2c3c(cc(Cl)nc3c1OC)C(=O)C(=O)N2 | 27.9 µM | 29.8 µM | 28.6 µM | 30.3 µM | 4.58 µM | 14.9 µM | 3.05 µM | 43.9 µM | 36.4 µM | 21.9 µM
4 | C=C1C[C@@H]2CC[C@@]34C[C@H]5O[C@H]6[C@@H](O3)[C@H]3O[C@H](CC[C@@H]3O[C@H]6[C@H]5O4)CC(=O)C[C@@H]3[C@@H](OC)[C@@H](C[C@H](O)CN)O[C@H]3C[C@H]3O[C@@H](CC[C@@H]1O2)C[C@@H](C)C3=C | > 1 µM | > 1 µM | 0.366 µM | 0.0104 µM | > 1 µM | 0.0412 µM | > 1 µM | 0.167 µM | 0.00215 µM | > 1 µM
5 | Cc1cc(S(=O)(=O)Nc2n[nH]c(Nc3ccccc3)n2)c(SCC(=O)O)cc1Cl | > 100 µM | > 100 µM | > 100 µM | > 100 µM | > 100 µM | > 100 µM | > 100 µM | > 100 µM | > 100 µM | > 100 µM
6 | CCC(=O)Nc1ccc(NS(=O)(=O)c2ccc(Cl)cc2)cc1 | > 100 µM | > 100 µM | > 100 µM | > 100 µM | > 100 µM | > 100 µM | > 100 µM | > 100 µM | > 100 µM | > 100 µM
7 | O=CN1CCN(C(=O)c2ccco2)C1=S | 24 µM | 16.8 µM | 18.5 µM | 20.1 µM | 10.6 µM | 17.4 µM | 46.6 µM | 59 µM | 22.8 µM | 33 µM
8 | COc1cc(OC)cc(Oc2nc3cc(F)c(F)cc3nc2-c2ccccc2)c1 | > 100 µM | > 100 µM | > 100 µM | > 100 µM | > 100 µM | > 100 µM | > 100 µM | > 100 µM | > 100 µM | > 100 µM
9 | CCOc1ccc(N=Nc2ccc3cc(/C(C)=N/NC(=O)/C(C#N)=C\c4ccc(N(CCC#N)CCC#N)cc4)c(=O)oc3c2)cc1 | > 10 µM | > 10 µM | > 10 µM | > 10 µM | > 10 µM | > 10 µM | > 10 µM | > 10 µM | > 10 µM | > 10 µM
10 | Cc1ccc(S(=O)(=O)c2c(O)c3ccc(O)c(C)c3oc2=O)cc1 | > 100 µM | > 100 µM | > 100 µM | > 100 µM | > 100 µM | > 100 µM | > 100 µM | > 100 µM | > 100 µM | > 100 µM
11 | O=C(/C=C\Nc1ccccc1O)C(F)(F)F | > 100 µM | > 100 µM | > 100 µM | > 100 µM | > 100 µM | > 100 µM | > 100 µM | > 100 µM | > 100 µM | > 100 µM
12 | COC(=O)C1=C(C)NC(C)=C(C(=O)OC)C1c1cccc(N=O)c1 | 27.6 µM | 31 µM | 22.4 µM | 30.2 µM | 40.1 µM | 11.8 µM | 26.2 µM | 28.5 µM | 33.5 µM | 30.2 µM
13 | CC(=O)OCC(=O)O[C@@H]1[C@H]2[C@@H](OC(=O)c3ccccc3)[C@@H](C)C[C@]2(O)[C@H](OC(C)=O)[C@@]2(C)C[C@]1(OC(C)=O)C[C@H]1C(=O)C(C)(C)[C@@H](OC(C)=O)[C@@H]12 | > 25 µM | > 25 µM | > 25 µM | > 25 µM | > 25 µM | > 25 µM | > 25 µM | > 25 µM | > 25 µM | > 25 µM
14 | CCOc1ccc(NCC2CC/C(=C\C=C\c3ccccc3)C2=O)cc1 (stereo not given) | > 92.2 µM | 33 µM | > 40.8 µM | 20.1 µM | 12.3 µM | 32.3 µM | 73.9 µM | 42.9 µM | 37.8 µM | 38.4 µM
15 | CC[N+]1(C)CCC(O)(c2ccc(C)cc2)C(C(=O)c2ccc(C)cc2)C1 (stereo not given) | 48 µM | > 100 µM | 61.4 µM | > 100 µM | 36.9 µM | 41.7 µM | 86.3 µM | > 100 µM | > 100 µM | > 100 µM
16 | Cc1cccc(NS(=O)(=O)c2ccc(N=Nc3c(O)c(C(=O)O)cc4ccccc34)cc2)n1 | > 100 µM | > 100 µM | > 100 µM | > 100 µM | > 100 µM | > 100 µM | > 100 µM | > 100 µM | > 100 µM | > 100 µM
17 | S=c1[nH]nc(Cn2c3ccc(Br)cc3c3nc4ccccc4nc32)n1C1CCCCC1 | 98.9 µM | > 83 µM | > 100 µM | > 100 µM | > 100 µM | 67.4 µM | > 100 µM | > 67.5 µM | 42.1 µM | > 100 µM
18 | CC1(C)OC[C@@H](C[C@H](O)COCc2ccccc2)O1 | > 100 µM | > 100 µM | > 100 µM | > 100 µM | > 100 µM | > 100 µM | > 100 µM | > 100 µM | > 100 µM | > 100 µM
19 | O=c1c(-c2ccccc2)c(SCCN2CCCCCC2)n(-c2ccccc2)c(=S)n1-c1ccccc1 | > 100 µM | > 100 µM | 99.1 µM | > 100 µM | > 100 µM | > 100 µM | 53.6 µM | > 100 µM | > 100 µM | > 100 µM
20 | O=C1CS/C(=N/N=C/c2cn(Cc3ccc(Cl)cc3Cl)c3ccccc23)N1 | > 100 µM | > 100 µM | > 100 µM | > 100 µM | 61.6 µM | > 100 µM | > 100 µM | 30.6 µM | 41 µM | > 100 µM
